Results from BindingDB's records for doi:10.1016/S0006-291X(02)00356-X (Katholieke Universiteit Leuven, 2002).

Molecular target: T1, Promotilin (Homo sapiens, UniProt P12872)
T1 sequence (P12872 whole entry): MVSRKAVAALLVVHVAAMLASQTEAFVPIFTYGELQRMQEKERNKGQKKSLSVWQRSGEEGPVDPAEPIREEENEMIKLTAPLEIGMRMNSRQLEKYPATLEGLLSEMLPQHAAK

Ki | Compound
0.00759 µM | CC[C@H]1OC(=O)[C@H](C)[C@@H](O[C@H]2C[C@@](C)(OC)[C@@H](O)[C@H](C)O2)[C@H](C)[C@@H](O[C@@H]2O[C@H](C)C[C@H](N(C)C)[C@H]2O)C2(C)CC(C)=C(O2)[C@H](C)[C@@H](O)[C@H]1C (some centres undefined) [Erythromycin-B enol ether]
0.145 µM | CC[C@H]1OC(=O)[C@H](C)[C@@H](O[C@H]2C[C@@](C)(OC)[C@@H](O)[C@H](C)O2)[C@H](C)[C@@H](O[C@@H]2O[C@H](C)C[C@H](N(C)C)[C@H]2O)[C@](C)(O)C[C@@H](C)C(=O)[C@H](C)[C@@H](O)[C@H]1C [Erythromycin-B]
0.24 µM | CC[C@H]1OC(=O)[C@H](C)[C@@H](O[C@H]2C[C@@](C)(OC)[C@@H](O)[C@H](C)O2)[C@H](C)[C@@H](O[C@@H]2O[C@H](C)C[C@H](N(C)CC)[C@H]2O)[C@](C)(O)C[C@@H](C)C(=O)[C@H](C)[C@@H](O)[C@]1(C)O [N-ethyl, N-Methyl Erythromycin-A]
0.00603 µM | CC[C@H]1OC(=O)[C@H](C)[C@@H](O[C@H]2C[C@@](C)(OC)[C@@H](O)[C@H](C)O2)[C@H](C)[C@@H](O[C@@H]2O[C@H](C)C[C@H](N(C)CC)[C@H]2O)[C@@]2(C)CC(C)=C(O2)[C@H](C)[C@@H](O)[C@]1(C)O [N-ethyl, N-methyl Erythromycin-A enol ether]
0.00214 µM | CC[C@H](C)[C@H](NC(=O)[C@@H]1CCCN1C(=O)[C@@H](NC(=O)[C@@H](N)Cc1ccccc1)C(C)C)C(=O)N[C@@H](Cc1ccccc1)C(=O)N[C@H](C(=O)N[C@@H](Cc1ccc(O)cc1)C(=O)NCC(=O)N[C@@H](CCC(=O)O)C(=O)N[C@@H](CC(C)C)C(=O)N[C@@H](CCC(N)=O)C(=O)N[C@@H](CCCN=C(N)N)C(=O)N[C@@H](CC(C)C)C(=O)N[C@@H](CCC(N)=O)C(=O)N[C@@H](CCC(=O)O)C(=O)N[C@@H](CCCCN)C(N)=O)[C@@H](C)O [[leu13]pMOT(1-16)]
0.00132 µM | H-FVAIFTYGELQRLQ-NH2 [[ala3,leu13]pMOT(1-14)]
2.57 µM | H-FVPAFTYGELQRLQ-NH2 [[ala4,leu13]pMOT(1-14)]
0.0288 µM | H-FVPIATYGELQRLQ-NH2 [[ala5,leu13]pMOT(1-14)]
8.91 µM | H-FVPIF-NH2 [[leu13]pMOT(1-5)]
0.0468 µM | H-FVPIFAYGELQRLQ-NH2 [[ala6,leu13]pMOT(1-14)]
1.45 µM | H-FVPIFTAGELQRLQ-NH2 [[ala7,leu13]pMOT(1-14)]
6.92 µM | H-FVPIFTY-NH2 [[leu13]pMOT(1-7)]
0.0363 µM | H-FVPIFTYAELQRLQ-NH2 [[ala8,leu13]pMOT(1-14)]
0.0759 µM | H-FVPIFTYGALQRLQ-NH2 [[ala9,leu13]pMOT(1-14)]
4.07 µM | H-FVPIFTYGE-NH2 [[leu13]pMOT(1-9)]
0.00501 µM | H-FVPIFTYGEAQRLQ-NH2 [[ala10,leu13]pMOT(1-14)]
0.00457 µM | H-FVPIFTYGELARLQ-NH2 [[ala11,leu13]pMOT(1-14)]
0.0891 µM | H-FVPIFTYGELQ-NH2 [[leu13]pMOT(1-11)]
0.00631 µM | H-FVPIFTYGELQALQ-NH2 [[ala12,leu13]pMOT(1-14)]
0.00724 µM | H-FVPIFTYGELQRAQ-NH2 [[ala13,leu13]pMOT(1-14)]
0.00708 µM | H-FVPIFTYGELQRLA-NH2 [[ala14,leu13]pMOT(1-14)]
0.00098 µM | H-FVPIFTYGELQRLQEKERN-NH2 [[leu13]pMOT(1-19)]
0.001 µM | H-FVPIFTYGELQRLQEKERNKGQ-OH [[leu13]pMOT(1-22)]

Compound | Ki
CC[C@H]1OC(=O)[C@H](C)[C@@H](O[C@H]2C[C@@](C)(OC)[C@@H](O)[C@H](C)O2)[C@H](C)[C@@H](O[C@@H]2O[C@H](C)C[C@H](N(C)C)[C@H]2O)[C@@]2(C)CC(C)=C(O2)[C@H](C)[C@@H](O)[C@]1(C)O [Erythromycin-A enol ether] | 0.00832 µM
